Data from ChEMBL document CHEMBL1145390, “Synthesis and preliminary biological characterization of new semisynthetic derivatives of ramoplanin” (J Med Chem, 2007).
In brackets after ≈: the same amount, converted by molar mass.

Columns and labels:
[1] = tested on: Enterococcus faecalis; test: Antibacterial activity against Enterococcus faecalis after 24 hrs by broth microdilution method; type: functional; conditions: read-out: MIC
[2] = tested on: Staphylococcus aureus; test: Antibacterial activity against Staphylococcus aureus Smith after 24 hrs by broth microdilution method; type: functional; conditions: read-out: MIC
[3] = tested on: Staphylococcus aureus; test: Antibacterial activity against methicillin-resistant Staphylococcus aureus clinical isolate after 24 hrs by broth microdilution method; type: functional; conditions: read-out: MIC
[4] = tested on: Staphylococcus aureus; test: Antibacterial activity against methicillin-resistant and vancomycin-intermediate resistant Staphylococcus aureus clinical isolate after 24 hrs by broth microdilution method; type: functional; conditions: read-out: MIC
[5] = tested on: Staphylococcus aureus; test: Antibacterial activity against vancomycin-intermediate resistant Staphylococcus aureus clinical isolate after 24 hrs by broth microdilution method; type: functional
[6] = tested on: Streptococcus pyogenes; test: Antibacterial activity against Streptococcus pyogenes C203 after 24 hrs by broth microdilution method; type: functional; conditions: C203, 24 h, read-out: MIC
[7] = tested on: Enterococcus faecalis; test: Antibacterial activity against vancomycin A-resistant Enterococcus faecalis after 24 hrs by broth microdilution method; type: functional; conditions: read-out: MIC
[8] = tested on: Enterococcus faecium; test: Antibacterial activity against Enterococcus faecium after 24 hrs by broth microdilution method; type: functional; conditions: read-out: MIC
[9] = tested on: Enterococcus faecium; test: Antibacterial activity against vancomycin A-resistant Enterococcus faecium clinical isolate after 24 hrs by broth microdilution method; type: functional; conditions: read-out: MIC
[10] = tested on: Escherichia coli; test: Antibacterial activity against Escherichia coli SKF-12140 after 24 hrs by broth microdilution method; type: functional; conditions: read-out: MIC
[11] = tested on: Candida albicans; test: Antifungal activity against Candida albicans SKF-2270 after 24 hrs by broth microdilution method; type: functional; conditions: read-out: MIC
[12] = Toxicity assessed as hemolysis in erythrocytes at 180 mg/L; type: cell-based, Erythrocyte; conditions: human, erythrocytes; read-out: Activity
[13] = Toxicity assessed as hemolysis in erythrocytes at 90 mg/L; type: cell-based, Erythrocyte; conditions: human, erythrocytes; read-out: Activity

Row | Compound | MIC [1] [µg/mL] | MIC [2] [µg/mL] | MIC [3] [µg/mL] | MIC [4] [µg/mL] | MIC [5] [µg/mL] | MIC [6] [µg/mL] | MIC [7] [µg/mL] | MIC [8] [µg/mL] | MIC [9] [µg/mL] | MIC [10] [µg/mL] | MIC [11] [µg/mL] | hemolysis at 180 mg/L [12] [%] | hemolysis at 90 mg/L [13] [%]
1 | CCCCCOc1ccc(C(=O)N[C@@H](CC(N)=O)C(=O)NC[C@@H]2C(=O)N[C@H](c3ccc(O)cc3)C(=O)N[C@H](CCCN)C(=O)N[C@H](C(C)C)C(=O)N[C@@H](c3ccc(O)cc3)C(=O)N[C@H](c3ccc(O)cc3)C(=O)N[C@@H]([C@@H](C)O)C(=O)N[C@@H](Cc3ccccc3)C(=O)N[C@H](CCCN)C(=O)N[C@@H](c3ccc(O[C@H]4O[C@H](CO)[C@@H](O)[C@H](O)[C@@H]4O[C@H]4O[C@H](CO)[C@@H](O)[C@H](O)[C@@H]4O)cc3)C(=O)N[C@H]([C@@H](C)O)C(=O)N[C@@H](c3ccc(O)cc3)C(=O)NCC(=O)N[C@@H](CC(C)C)C(=O)N[C@H](C)C(=O)N[C@@H](c3ccc(O)c(Cl)c3)C(=O)O[C@@H]2C(N)=O)cc1 | 0.25 (≈ 0.0954 µM) | 8 (≈ 3.05 µM) | 2 (≈ 0.763 µM) | 8 (≈ 3.05 µM) | 4 (≈ 1.53 µM) | 0.25 (≈ 0.0954 µM) | 0.25 (≈ 0.0954 µM) | 0.25 (≈ 0.0954 µM) | 0.25 (≈ 0.0954 µM) | > 32 | > 32 | 10 | 8
2 | CC(C)C[C@@H]1NC(=O)CNC(=O)[C@H](c2ccc(O)cc2)NC(=O)[C@@H]([C@@H](C)O)NC(=O)[C@H](c2ccc(O[C@H]3O[C@H](CO)[C@@H](O)[C@H](O)[C@@H]3O[C@H]3O[C@H](CO)[C@@H](O)[C@H](O)[C@@H]3O)cc2)NC(=O)[C@@H](CCCN)NC(=O)[C@H](Cc2ccccc2)NC(=O)[C@H]([C@@H](C)O)NC(=O)[C@@H](c2ccc(O)cc2)NC(=O)[C@H](c2ccc(O)cc2)NC(=O)[C@@H](C(C)C)NC(=O)[C@@H](CCCN)NC(=O)[C@@H](c2ccc(O)cc2)NC(=O)[C@@H](CNC(=O)[C@H](CC(N)=O)NC(=O)CCc2ccccc2)[C@@H](C(N)=O)OC(=O)[C@H](c2ccc(O)c(Cl)c2)NC(=O)[C@@H](C)NC1=O | 2 (≈ 0.781 µM) | 16 (≈ 6.24 µM) | 2 (≈ 0.781 µM) | 8 (≈ 3.12 µM) | 8 (≈ 3.12 µM) | ≤ 0.03 | 2 (≈ 0.781 µM) | 1 (≈ 0.39 µM) | 2 (≈ 0.781 µM) | > 32 | > 32 | 0 | 0
3 | CC(C)C[C@@H]1NC(=O)CNC(=O)[C@H](c2ccc(O)cc2)NC(=O)[C@@H]([C@@H](C)O)NC(=O)[C@H](c2ccc(O[C@H]3O[C@H](CO)[C@@H](O)[C@H](O)[C@@H]3O[C@H]3O[C@H](CO)[C@@H](O)[C@H](O)[C@@H]3O)cc2)NC(=O)[C@@H](CCCN)NC(=O)[C@H](Cc2ccccc2)NC(=O)[C@H]([C@@H](C)O)NC(=O)[C@@H](c2ccc(O)cc2)NC(=O)[C@H](c2ccc(O)cc2)NC(=O)[C@@H](C(C)C)NC(=O)[C@@H](CCCN)NC(=O)[C@@H](c2ccc(O)cc2)NC(=O)[C@@H](CNC(=O)[C@H](CC(N)=O)NC(=O)c2ccc(C#N)cc2)[C@@H](C(N)=O)OC(=O)[C@H](c2ccc(O)c(Cl)c2)NC(=O)[C@@H](C)NC1=O | 4 (≈ 1.56 µM) | 8 (≈ 3.13 µM) | 4 (≈ 1.56 µM) | 32 (≈ 12.5 µM) | 32 (≈ 12.5 µM) | 0.06 (≈ 0.0234 µM) | 8 (≈ 3.13 µM) | 8 (≈ 3.13 µM) | 4 (≈ 1.56 µM) | > 32 | > 32 | 3 | 2
4 | CC(C)C[C@@H]1NC(=O)CNC(=O)[C@H](c2ccc(O)cc2)NC(=O)[C@@H]([C@@H](C)O)NC(=O)[C@H](c2ccc(O[C@H]3O[C@H](CO)[C@@H](O)[C@H](O)[C@@H]3O[C@H]3O[C@H](CO)[C@@H](O)[C@H](O)[C@@H]3O)cc2)NC(=O)[C@@H](CCCN)NC(=O)[C@H](Cc2ccccc2)NC(=O)[C@H]([C@@H](C)O)NC(=O)[C@@H](c2ccc(O)cc2)NC(=O)[C@H](c2ccc(O)cc2)NC(=O)[C@@H](C(C)C)NC(=O)[C@@H](CCCN)NC(=O)[C@@H](c2ccc(O)cc2)NC(=O)[C@@H](CNC(=O)[C@H](CC(N)=O)NC(=O)c2ccc3ccccc3c2)[C@@H](C(N)=O)OC(=O)[C@H](c2ccc(O)c(Cl)c2)NC(=O)[C@@H](C)NC1=O | 0.125 (≈ 0.0484 µM) | 0.125 (≈ 0.0484 µM) | 0.25 (≈ 0.0967 µM) | 2 (≈ 0.774 µM) | 1 (≈ 0.387 µM) | ≤ 0.03 | 0.25 (≈ 0.0967 µM) | 0.25 (≈ 0.0967 µM) | 0.25 (≈ 0.0967 µM) | > 32 | > 32 | 40 | 8
5 | CCCCCCCCCC(=O)N[C@@H](CC(N)=O)C(=O)NC[C@@H]1C(=O)N[C@H](c2ccc(O)cc2)C(=O)N[C@H](CCCN)C(=O)N[C@H](C(C)C)C(=O)N[C@@H](c2ccc(O)cc2)C(=O)N[C@H](c2ccc(O)cc2)C(=O)N[C@@H]([C@@H](C)O)C(=O)N[C@@H](Cc2ccccc2)C(=O)N[C@H](CCCN)C(=O)N[C@@H](c2ccc(O[C@H]3O[C@H](CO)[C@@H](O)[C@H](O)[C@@H]3O[C@H]3O[C@H](CO)[C@@H](O)[C@H](O)[C@@H]3O)cc2)C(=O)N[C@H]([C@@H](C)O)C(=O)N[C@@H](c2ccc(O)cc2)C(=O)NCC(=O)N[C@@H](CC(C)C)C(=O)N[C@H](C)C(=O)N[C@@H](c2ccc(O)c(Cl)c2)C(=O)O[C@@H]1C(N)=O | 0.125 (≈ 0.0484 µM) | 2 (≈ 0.774 µM) | 2 (≈ 0.774 µM) | 8 (≈ 3.1 µM) | 4 (≈ 1.55 µM) | 0.25 (≈ 0.0967 µM) | 0.06 (≈ 0.0232 µM) | 0.25 (≈ 0.0967 µM) | 0.06 (≈ 0.0232 µM) | > 32 | > 32 | 41 | 0
6 | COc1ccc(CC(=O)N[C@@H](CC(N)=O)C(=O)NC[C@@H]2C(=O)N[C@H](c3ccc(O)cc3)C(=O)N[C@H](CCCN)C(=O)N[C@H](C(C)C)C(=O)N[C@@H](c3ccc(O)cc3)C(=O)N[C@H](c3ccc(O)cc3)C(=O)N[C@@H]([C@@H](C)O)C(=O)N[C@@H](Cc3ccccc3)C(=O)N[C@H](CCCN)C(=O)N[C@@H](c3ccc(O[C@H]4O[C@H](CO)[C@@H](O)[C@H](O)[C@@H]4O[C@H]4O[C@H](CO)[C@@H](O)[C@H](O)[C@@H]4O)cc3)C(=O)N[C@H]([C@@H](C)O)C(=O)N[C@@H](c3ccc(O)cc3)C(=O)NCC(=O)N[C@@H](CC(C)C)C(=O)N[C@H](C)C(=O)N[C@@H](c3ccc(O)c(Cl)c3)C(=O)O[C@@H]2C(N)=O)cc1 | 8 (≈ 3.1 µM) | 8 (≈ 3.1 µM) | 8 (≈ 3.1 µM) | 32 (≈ 12.4 µM) | 32 (≈ 12.4 µM) | 0.125 (≈ 0.0485 µM) | 8 (≈ 3.1 µM) | 16 (≈ 6.21 µM) | 8 (≈ 3.1 µM) | > 32 | > 32 | 0 | 0
7 | CC(C)C[C@@H]1NC(=O)CNC(=O)[C@H](c2ccc(O)cc2)NC(=O)[C@@H]([C@@H](C)O)NC(=O)[C@H](c2ccc(O[C@H]3O[C@H](CO)[C@@H](O)[C@H](O)[C@@H]3O[C@H]3O[C@H](CO)[C@@H](O)[C@H](O)[C@@H]3O)cc2)NC(=O)[C@@H](CCCN)NC(=O)[C@H](Cc2ccccc2)NC(=O)[C@H]([C@@H](C)O)NC(=O)[C@@H](c2ccc(O)cc2)NC(=O)[C@H](c2ccc(O)cc2)NC(=O)[C@@H](C(C)C)NC(=O)[C@@H](CCCN)NC(=O)[C@@H](c2ccc(O)cc2)NC(=O)[C@@H](CNC(=O)[C@H](CC(N)=O)NC(=O)Cc2ccc3ccccc3c2)[C@@H](C(N)=O)OC(=O)[C@H](c2ccc(O)c(Cl)c2)NC(=O)[C@@H](C)NC1=O.Cl | 0.125 | 0.25 | 0.25 | 1 | 1 | ≤ 0.03 | 0.125 | 0.25 | 0.25 | > 32 | > 32 | 59 | 24
8 | CCc1ccc(C(=O)N[C@@H](CC(N)=O)C(=O)NC[C@@H]2C(=O)N[C@H](c3ccc(O)cc3)C(=O)N[C@H](CCCN)C(=O)N[C@H](C(C)C)C(=O)N[C@@H](c3ccc(O)cc3)C(=O)N[C@H](c3ccc(O)cc3)C(=O)N[C@@H]([C@@H](C)O)C(=O)N[C@@H](Cc3ccccc3)C(=O)N[C@H](CCCN)C(=O)N[C@@H](c3ccc(O[C@H]4O[C@H](CO)[C@@H](O)[C@H](O)[C@@H]4O[C@H]4O[C@H](CO)[C@@H](O)[C@H](O)[C@@H]4O)cc3)C(=O)N[C@H]([C@@H](C)O)C(=O)N[C@@H](c3ccc(O)cc3)C(=O)NCC(=O)N[C@@H](CC(C)C)C(=O)N[C@H](C)C(=O)N[C@@H](c3ccc(O)c(Cl)c3)C(=O)O[C@@H]2C(N)=O)cc1 | 1 (≈ 0.39 µM) | 0.5 (≈ 0.195 µM) | 1 (≈ 0.39 µM) | 4 (≈ 1.56 µM) | > 32 | < 0.03 | 1 (≈ 0.39 µM) | 1 (≈ 0.39 µM) | 1 (≈ 0.39 µM) | > 32 | > 32 | 62 | 36
